Source: ChEMBL document CHEMBL3352468, “Synthesis and receptor binding in trans-CD ring-fused A-CD estrogens: comparison with the cis-fused isomers” (Bioorg Med Chem Lett, 2014)

Legend:
[1] = molecular target: Estrogen receptor beta (Homo sapiens) (UniProt Q92731); assay: Binding affinity to ERbeta (unknown origin) relative to estradiol
[2] = species on record: Homo sapiens; assay: Selectivity ratio of RBA for ERbeta (unknown origin) to RBA for ERalpha (unknown origin)

Estrogen receptor beta (Homo sapiens), sequence (Q92731 whole entry): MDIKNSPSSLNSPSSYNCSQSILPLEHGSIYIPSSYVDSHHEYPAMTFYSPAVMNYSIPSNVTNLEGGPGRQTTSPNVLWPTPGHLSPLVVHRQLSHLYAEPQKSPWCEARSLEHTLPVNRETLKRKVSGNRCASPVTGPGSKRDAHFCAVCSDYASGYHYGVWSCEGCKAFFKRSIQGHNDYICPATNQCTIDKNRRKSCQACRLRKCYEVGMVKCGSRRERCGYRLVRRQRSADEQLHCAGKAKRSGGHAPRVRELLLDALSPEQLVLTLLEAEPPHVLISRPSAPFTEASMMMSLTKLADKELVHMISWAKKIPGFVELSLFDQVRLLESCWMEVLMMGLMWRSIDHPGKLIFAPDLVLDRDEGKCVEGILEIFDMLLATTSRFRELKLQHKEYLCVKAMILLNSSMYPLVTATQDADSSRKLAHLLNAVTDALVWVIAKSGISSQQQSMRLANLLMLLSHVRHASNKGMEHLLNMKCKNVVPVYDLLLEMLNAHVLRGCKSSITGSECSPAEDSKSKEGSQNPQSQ

relative binding affinity (RBA) [1] | Selectivity ratio [2] | SMILES
33.6 | 11.9 | Cc1cc(O)ccc1[C@H]1CC[C@@]2(C)[C@H](CC[C@@H]2O)C1
0.097 | 3.3 | C[C@]12CC[C@H](c3cc(F)c(O)c(F)c3F)C[C@@H]1CC[C@@H]2O
0.022 | 5.5 | COc1cc(O)ccc1C1=CC[C@@]2(C)[C@H](CC[C@@H]2O)C1
14.1 | 1.5 | C[C@]12CC=C(c3ccc(O)cc3Cl)C[C@@H]1CC[C@@H]2O
38 | 1.7 | C[C@]12CC=C(c3ccc(O)cc3F)C[C@@H]1CC[C@@H]2O
0.226 | 2.8 | Cc1c([C@H]2CC[C@@]3(C)[C@@H](CC[C@@H]3O)C2)cc(F)c(O)c1F
13.6 | 3.2 | C[C@]12CC[C@H](c3ccc(O)cc3F)C[C@@H]1CC[C@@H]2O
0.037 | 3.7 | COc1cc(O)ccc1[C@H]1CC[C@@]2(C)[C@@H](CC[C@@H]2O)C1
0.029 | 4.8 | COc1cc(O)ccc1C1=CC[C@@]2(C)[C@@H](CC[C@@H]2O)C1
2.7 | 6.1 | C[C@]12CC=C(c3cc(F)c(O)cc3F)C[C@H]1CC[C@@H]2O
21.5 | 14.6 | C[C@]12CC[C@H](c3ccc(O)cc3)C[C@H]1CC[C@@H]2O
0.076 | 0.8 | C[C@]12CC=C(c3cc(F)c(O)c(F)c3F)C[C@@H]1CC[C@@H]2O
3.97 | 15.3 | C[C@]12CC[C@H](c3ccc(O)cc3O)C[C@H]1CC[C@@H]2O
6.8 | 17 | C[C@]12CC=C(c3ccc(O)cc3)C[C@H]1CC[C@@H]2O
8.7 | 8.4 | C[C@]12CC[C@H](c3ccc(O)c(F)c3)C[C@H]1CC[C@@H]2O
149 | 3 | C[C@]12CC=C(c3ccc(O)c(F)c3Cl)C[C@H]1CC[C@@H]2O
10 | 4.2 | C[C@]12CC[C@H](c3ccc(O)cc3)C[C@@H]1CC[C@@H]2O

relative binding affinity (RBA) [1] | Selectivity ratio [2] | SMILES
136 | 5 | C[C@]12CC[C@H](c3ccc(O)cc3F)C[C@H]1CC[C@@H]2O
4.9 | 1 | C[C@]12CC[C@H](c3ccc(O)cc3C(F)(F)F)C[C@@H]1CC[C@@H]2O
17.3 | 4.7 | C[C@]12CC=C(c3ccc(O)cc3)C[C@@H]1CC[C@@H]2O
6.84 | 4.1 | C[C@]12CC[C@H](c3ccc(O)c(F)c3)C[C@@H]1CC[C@@H]2O
1.73 | 9.3 | C[C@]12CC[C@H](c3cc(F)c(O)c(F)c3F)C[C@H]1CC[C@@H]2O
49 | 11 | C[C@]12CC=C(c3ccc(O)cc3F)C[C@H]1CC[C@@H]2O
5.35 | 7.1 | Cc1c([C@H]2CC[C@@]3(C)[C@H](CC[C@@H]3O)C2)cc(F)c(O)c1F
1.3 | 2.8 | Cc1cc(O)ccc1[C@H]1CC[C@@]2(C)[C@@H](CC[C@@H]2O)C1
118 | 2 | C[C@]12CC=C(c3ccc(O)cc3Cl)C[C@H]1CC[C@@H]2O
42.8 | 9.3 | C[C@]12CC[C@H](c3ccc(O)c(F)c3F)C[C@H]1CC[C@@H]2O
7.3 | 7.9 | C[C@]12CC[C@H](c3ccc(O)c(F)c3F)C[C@@H]1CC[C@@H]2O
55 | 18.3 | C[C@]12CC=C(c3ccc(O)c(Cl)c3Cl)C[C@H]1CC[C@@H]2O
0.15 | 4.1 | C[C@]12CC[C@H](c3ccc(O)cc3O)C[C@@H]1CC[C@@H]2O
6 | 1.8 | C[C@]12CC=C(c3cc(F)c(O)c(F)c3Cl)C[C@H]1CC[C@@H]2O
174 | 1.4 | C[C@]12CC=C(c3ccc(O)cc3C(F)(F)F)C[C@H]1CC[C@@H]2O
0.123 | 7.7 | COc1cc(O)ccc1[C@H]1CC[C@@]2(C)[C@H](CC[C@@H]2O)C1
